Results reported in patent US8835472B2, “Compounds, pharmaceutical compositions and uses thereof” (Boehringer Ingelheim International GmbH, priority 2010, dated 2014).

Target: human ACC2 (Homo sapiens (Human), UniProt O00763)
Test: ACC2 assay, spectrophotometric 384 well assay (NADH-linked, coupled lactate dehydrogenase/pyruvate kinase reaction)
Format: biochemical
Conditions: hACC2 construct lacking the 128 N-terminal amino acids; 25° C., 340 nm over 15 minutes
Summary of the method: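 N-terminally truncated human ACC2 (lacking 128 residues) expressed in insect cells; coupled PK/LDH read-out of ADP as NADH loss at 340 nm, 15 min, 25 °C. Tris pH 7.5 with citrate and KHCO3; 200 μM acetyl-CoA, 500 μM ATP, 1% DMSO.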

Sequence of human ACC2 (O00763 129-2458): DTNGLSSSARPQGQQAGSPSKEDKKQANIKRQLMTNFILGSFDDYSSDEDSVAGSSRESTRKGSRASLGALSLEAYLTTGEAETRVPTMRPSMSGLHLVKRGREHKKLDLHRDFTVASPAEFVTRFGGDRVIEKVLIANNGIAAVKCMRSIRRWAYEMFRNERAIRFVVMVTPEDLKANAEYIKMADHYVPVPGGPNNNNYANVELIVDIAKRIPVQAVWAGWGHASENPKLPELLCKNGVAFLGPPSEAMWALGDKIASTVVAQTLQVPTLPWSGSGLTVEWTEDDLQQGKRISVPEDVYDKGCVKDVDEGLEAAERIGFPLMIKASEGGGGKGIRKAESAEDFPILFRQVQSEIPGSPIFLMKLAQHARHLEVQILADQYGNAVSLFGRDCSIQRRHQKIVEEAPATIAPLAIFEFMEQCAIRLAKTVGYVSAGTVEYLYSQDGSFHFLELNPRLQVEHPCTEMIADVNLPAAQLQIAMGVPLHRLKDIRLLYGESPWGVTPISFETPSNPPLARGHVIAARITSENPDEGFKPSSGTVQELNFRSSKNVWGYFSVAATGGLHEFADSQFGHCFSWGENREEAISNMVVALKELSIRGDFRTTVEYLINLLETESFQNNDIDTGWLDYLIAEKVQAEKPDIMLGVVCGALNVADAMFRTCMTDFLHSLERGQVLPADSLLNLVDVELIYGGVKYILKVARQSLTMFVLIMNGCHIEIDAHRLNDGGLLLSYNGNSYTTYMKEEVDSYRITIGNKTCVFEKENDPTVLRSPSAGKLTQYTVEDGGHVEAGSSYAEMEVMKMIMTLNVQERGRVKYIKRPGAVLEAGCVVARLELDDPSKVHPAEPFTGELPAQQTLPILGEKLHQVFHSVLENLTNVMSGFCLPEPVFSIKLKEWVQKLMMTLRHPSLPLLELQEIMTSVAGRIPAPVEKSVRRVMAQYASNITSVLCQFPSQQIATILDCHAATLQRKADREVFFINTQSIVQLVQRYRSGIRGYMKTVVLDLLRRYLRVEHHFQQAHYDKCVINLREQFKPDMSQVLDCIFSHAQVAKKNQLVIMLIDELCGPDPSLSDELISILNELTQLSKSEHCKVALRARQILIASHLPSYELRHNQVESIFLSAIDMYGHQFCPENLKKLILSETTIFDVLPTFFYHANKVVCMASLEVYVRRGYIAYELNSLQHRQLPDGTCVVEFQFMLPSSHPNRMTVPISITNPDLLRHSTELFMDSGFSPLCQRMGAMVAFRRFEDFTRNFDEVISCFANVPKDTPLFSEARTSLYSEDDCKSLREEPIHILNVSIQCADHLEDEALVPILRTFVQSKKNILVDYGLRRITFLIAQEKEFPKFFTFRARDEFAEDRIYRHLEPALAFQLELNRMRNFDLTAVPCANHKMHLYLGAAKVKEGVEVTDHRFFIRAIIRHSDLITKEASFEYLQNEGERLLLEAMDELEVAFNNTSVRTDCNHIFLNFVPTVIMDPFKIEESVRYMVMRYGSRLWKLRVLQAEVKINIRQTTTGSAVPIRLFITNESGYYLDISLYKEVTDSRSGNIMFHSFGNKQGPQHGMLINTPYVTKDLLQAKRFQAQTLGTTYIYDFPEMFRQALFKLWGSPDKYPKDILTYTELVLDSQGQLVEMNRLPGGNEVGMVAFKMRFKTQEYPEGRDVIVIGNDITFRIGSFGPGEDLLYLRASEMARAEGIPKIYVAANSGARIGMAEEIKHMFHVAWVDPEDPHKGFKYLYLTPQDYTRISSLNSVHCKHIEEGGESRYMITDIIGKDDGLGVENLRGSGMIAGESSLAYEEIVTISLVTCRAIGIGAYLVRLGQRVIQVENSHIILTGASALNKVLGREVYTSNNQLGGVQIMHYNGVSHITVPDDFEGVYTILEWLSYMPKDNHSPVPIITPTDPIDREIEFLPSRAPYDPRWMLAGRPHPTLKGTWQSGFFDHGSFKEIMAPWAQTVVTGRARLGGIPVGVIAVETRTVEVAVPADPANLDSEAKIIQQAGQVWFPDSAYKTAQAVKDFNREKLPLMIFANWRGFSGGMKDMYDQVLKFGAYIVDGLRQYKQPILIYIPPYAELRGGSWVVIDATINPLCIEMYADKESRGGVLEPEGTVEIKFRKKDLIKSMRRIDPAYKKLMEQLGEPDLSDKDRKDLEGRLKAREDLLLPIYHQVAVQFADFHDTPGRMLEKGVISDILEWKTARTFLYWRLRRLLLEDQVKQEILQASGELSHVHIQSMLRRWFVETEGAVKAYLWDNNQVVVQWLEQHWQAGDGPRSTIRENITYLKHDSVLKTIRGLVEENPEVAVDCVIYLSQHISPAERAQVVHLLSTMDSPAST

| Structure (SMILES) | IC50 [nM] |
| --- | --- |
| CC(=O)NC(C)Cc1ccc(C#Cc2cccc(OCc3c[nH]cn3)c2)cc1 (stereo not drawn) [Example 9.15] | 2100 |
| CC(=O)NC(C)Cc1ccc(C#Cc2ccnc(N3CCOCC3)n2)cc1 (stereo not drawn) [Example 11.42] | 620 |
| CC(=O)NC(C)Cc1ccc(C#Cc2ccnc(Oc3cncnc3)c2)cc1 (stereo not drawn) [Example 2.91] | 400 |
| CC(=O)NC(C)Cc1ccc(C#Cc2cc(OCc3ccccc3)ncn2)cc1 (stereo not drawn) [Example 2.78] | 750 |
| CCNC(=O)c1cccc(C#Cc2ccc(CC(C)NC(C)=O)cc2)c1 (stereo not drawn) [Example 8.38] | 14300 |
| CC(=O)NC(C)Cc1ccc(C#Cc2ccc3c(c2)CCO3)cc1 (stereo not drawn) [Example 2.8] | 730 |
| CC(=O)NC(C)Cc1ccc(C#Cc2ccc(C(=O)N(C)C)cc2)cc1 (stereo not drawn) [Example 8.43] | 3900 |
| CCOc1ccc(C#Cc2ccc(CC(C)NC(=O)c3ccon3)cc2)cc1 (stereo not drawn) [Example 4.65] | 1100 |
| CC(=O)NC(C)Cc1ccc(C#Cc2ccc(C(=O)NCC3CCCO3)cc2)cc1 (stereo not drawn) [Example 8.7] | 26300 |
| CCC(CC)Oc1ccc(C#Cc2ccc(CC(C)NC(C)=O)cc2)cc1 (stereo not drawn) [Example 9.1, N-(1-(4-((4-(pentan-3yloxy)phenyl)ethynyl)phenyl)propan-2-yl)acetamide] | 220 |
| CC(=O)NC(C)Cc1ccc(C#Cc2ccc(OCCc3cn[nH]c3)cc2)cc1 (stereo not drawn) [Example 9.36] | 420 |
| CC(=O)NC(C)Cc1ccc(C#Cc2ccc(OCc3cccnc3)cc2)cc1 (stereo not drawn) [Example 9.42] | 630 |
| CSc1ccc(C#Cc2ccc(C(C)NC(C)=O)cc2)cc1 (stereo not drawn) [Example 2.101] | 350 |
| CC(=O)NC(C)Cc1ccc(C#Cc2ccc(-c3ccc(Cl)cc3)nn2)cc1 (stereo not drawn) [Example 1.3] | 690 |
| CC(=O)NC(C)Cc1ccc(C#Cc2ccc(C(=O)NCC3CC3)cc2)cc1 (stereo not drawn) [Example 8.6] | 1500 |
| COc1ccc(C#Cc2ccc(C(C)NC(C)=O)cc2)cc1 (stereo not drawn) [Example 2.104] | 1500 |
| CCOc1ccc(C#Cc2ccc(CC(C)NC(=O)CF)cc2)cc1 (stereo not drawn) [Example 4.31] | 410 |
| CC(=O)NC(C)Cc1ccc(C#Cc2ccnc(Nc3ccccc3)n2)cc1 (stereo not drawn) [Example 11.41] | 2700 |
| CC(=O)NC(C)Cc1ccc(C#Cc2ccc(C(=O)NCC(F)(F)F)cc2)cc1 (stereo not drawn) [Example 1.11] | 1700 |
| CC(=O)NC(C)Cc1ccc(C#Cc2cccc(C(=O)NCCN3CCOCC3)c2)cc1 (stereo not drawn) [Example 8.24] | 30000 |
| CCOc1ccc(C#Cc2ccc(CC(C)NC(=O)c3ccco3)cc2)cc1 (stereo not drawn) [Example 4.59] | 110 |
| CCCOc1ccc(C#Cc2ccc(C(C)(C)NC(C)=O)cc2)c(OC)c1 [Example 2.40] | 11800 |
| CCOc1ccc(C#Cc2ccc(CC(C)NC(=O)C3CCNC3=O)cc2)cc1 (stereo not drawn) [Example 4.58] | 680 |

| Structure (SMILES) | IC50 [nM] |
| --- | --- |
| CCCOc1ccc(C#Cc2ccc(CC(C)NC(C)=O)cc2)cn1 (stereo not drawn) [Example 2.27] | 280 |
| CNC(=O)c1ccc(C#Cc2ccc(CC(C)NC(C)=O)cc2)cc1 (stereo not drawn) [Example 8.44] | 22100 |
| CCOc1ccc(C#Cc2ccc(C(C)NC(=O)NCC(=O)O)cc2)cc1 (stereo not drawn) [Example 6.4] | 9600 |
| COC(=O)c1cc(C#Cc2ccc(CC(C)NC(C)=O)cc2)ccn1 (stereo not drawn) [Example 3.10] | 4500 |
| CC(=O)NC(C)Cc1ccc(C#Cc2ccc(C(=O)NC3CCCC3)cc2)cc1 (stereo not drawn) [Example 8.4] | 1600 |
| CC(=O)NC(C)c1ccc(C#Cc2ccc(OC(C)C)nc2)cc1 (stereo not drawn) [Example 2.50] | 900 |
| CC(=O)NC(C)Cc1ccc(C#Cc2ccnc(NCC(C)C)n2)cc1 (stereo not drawn) [Example 11.44] | 1300 |
| CC(CNC(=O)CC#N)c1ccc(C#Cc2cnc(OC3CCC3)nc2)cc1 (stereo not drawn) [Example 4.76] | 660 |
| CC(=O)NC(C)Cc1ccc(C#Cc2ccnc(N(C)C3CCOC3)n2)cc1 (stereo not drawn) [Example 11.31] | 2000 |
| CCCc1ccc(C#Cc2ccc(CC(C)NC(C)=O)cc2)cc1 (stereo not drawn) [Example 2.20] | 300 |
| CC(=O)NC(C)Cc1ccc(C#Cc2ccc(OCC(C)F)cc2)cc1 (stereo not drawn) [Example 9.39] | 180 |
| CCOc1ccc(C#Cc2ccc(CC(C)NS(C)(=O)=O)cc2)cc1 (stereo not drawn) [Example 5.4] | 330 |
| CC(=O)NC(C)Cc1ccc(C#Cc2ccnc(Oc3ccccc3)c2)cc1 (stereo not drawn) [Example 2.98] | 150 |
| CC(=O)NC(C)(C)c1ccc(C#Cc2ccnc(OC(C)C)c2)cc1 [Example 2.38] | 10100 |
| CC(=O)NC(C)c1ccc(C#Cc2ccc(OCC(C)C)cc2)cc1 (stereo not drawn) [Example 2.48] | 260 |
| COc1ccc(C#Cc2ccc(CC(C)NC(=O)C3CC3)cc2)cn1 (stereo not drawn) [Example 2.64] | 2800 |
| COc1ccc(Nc2nccc(C#Cc3ccc(CC(C)NC(C)=O)cc3)n2)cn1 (stereo not drawn) [Example 11.5] | 7200 |
| CC(=O)NC(C)Cc1ccc(C#Cc2ccn(C(C)C)c(=O)c2)cc1 (stereo not drawn) [Example 2.84] | 5800 |
| CCNC(=O)c1ccc(C#Cc2ccc(CC(C)NC(C)=O)cc2)cc1 (stereo not drawn) [Example 8.17] | 4400 |
| CC(=O)NC(C)Cc1ccc(C#Cc2ccnc(N(C)CC(F)(F)F)n2)cc1 (stereo not drawn) [Example 11.33] | 680 |
| CCCOc1ccc(C#Cc2ccc(CC(C)NC(C)=O)cc2)c(C(N)=O)c1 (stereo not drawn) [Example 2.90] | 5200 |
| CCCc1ccc(C#Cc2ccc(CC(C)NC(=O)C3CC3)cc2)cc1 (stereo not drawn) [Example 2.63] | 460 |
| CC(=O)NC(C)c1ccc(C#Cc2ccc3c(c2)CCO3)cc1 (stereo not drawn) [Example 2.45] | 250 |

The remaining lines, values ahead:

| IC50 [nM] | Structure (SMILES) |
| --- | --- |
| 500 | COC(=O)NC(C)Cc1ccc(C#Cc2cnc(NC3CCC3)nc2)cc1 (stereo not drawn) [Example 13.31] |
| 730 | CC(=O)NC(C)Cc1ccc(C#Cc2cnc(N3CCOCC3)nc2)cc1 (stereo not drawn) [Example 13.22] |
| 960 | CC(=O)N[C@@H](C)c1ccc(C#Cc2cnc(NC3CC3)nc2)cc1 [Example 13.90] |
| 80 | CCCOc1ccc(C#Cc2ccc(CC(C)NC(=O)C3CC3)cc2)cc1 (stereo not drawn) [Example 14.40] |
| 2300 | CC(=O)NC(C)Cc1ccc(C#Cc2cnc(OC(C)c3ccncc3)nc2)cc1 (stereo not drawn) [Example 12.35] |
| 70 | CCCOc1ccc(C#Cc2ccc(CC(C)NC(C)=O)cc2)cc1 (stereo not drawn) [Example 24.1, N-{1-Methyl-2-[4-(4-propoxy-phenylethynyl)-phenyl]-ethyl}-acetamide] |
| 230 | CCCOc1ncc(C#Cc2ccc(CC(C)NC(C)=O)cc2)cn1 (stereo not drawn) [Example 12.15] |
| 600 | CC(Cc1ccc(C#Cc2cnc(NC3CCCC3)nc2)cc1)NC(=O)C1CC1 (stereo not drawn) [Example 13.47] |
| 70 | CCCOc1ccc(C#Cc2ccc(CC(C)(C)NC(C)=O)cc2)cc1 [Example 35.1, N-(1,1-Dimethyl-2-(4-(4-propoxyphenylethynyl)-phenyl)-ethyl)-acetamide] |
| 170 | CC(=O)NC(C)Cc1ccc(C#Cc2cnc(NC(C)C)nc2)cc1 (stereo not drawn) [Example 13.4] |
| 320 | CC(=O)NC(C)Cc1ccc(C#Cc2cnc(OCCc3ccccc3)nc2)cc1 (stereo not drawn) [Example 12.32] |
| 170 | CC(=O)NC(C)Cc1ccc(C#Cc2cnc(Oc3ccccc3)nc2)cc1 (stereo not drawn) [Example 12.16] |
| 430 | CCOc1ccc(C#Cc2ccc(CCNC(C)=O)cc2)cc1 [Example 16.3] |
| 1100 | CC(=O)NC(C)Cc1ccc(C#Cc2ccnc(OC3CCC3)n2)cc1 (stereo not drawn) [Example 12.6] |
| 7300 | CC(=O)N[C@@H](C)c1ccc(C#Cc2cnc(NCc3ccccc3)nc2)cc1 [Example 13.92] |
| 1100 | CCCOc1cc(C#Cc2ccc(CCNC(C)=O)cc2)ccn1 [Example 14.39] |
| 220 | CCC(C)Nc1ncc(C#Cc2ccc(CC(C)NC(=O)N(C)C)cc2)cn1 (stereo not drawn) [Example 13.25] |
| 4300 | CC(=O)NC(C)Cc1ccc(C#Cc2ccnc(OC3CCCC3)n2)cc1 (stereo not drawn) [Example 12.2] |
| 1700 | COC1(C)CCN(c2ncc(C#Cc3ccc(CC(C)NC(C)=O)cc3)cn2)CC1 (stereo not drawn) [Example 13.74] |

| IC50 [nM] | Structure (SMILES) |
| --- | --- |
| 1400 | COC(=O)CNc1ncc(C#Cc2ccc(CC(C)NC(C)=O)cc2)cn1 (stereo not drawn) [Example 13.5] |
| 170 | CC(=O)NC(C)Cc1ccc(C#Cc2cnc(OCc3ccc(F)cc3)nc2)cc1 (stereo not drawn) [Example 12.55] |
| 3600 | CC(=O)N[C@@H](C)c1ccc(C#Cc2cnc(NCCC(F)(F)F)nc2)cc1 [Example 13.94] |
| 7100 | CC(=O)NC(C)Cc1ccc(C#Cc2ccnc(OC(C)C)n2)cc1 (stereo not drawn) [Example 12.18] |
| 860 | COC(=O)NC(C)Cc1ccc(C#Cc2cnc(Oc3ccccc3)nc2)cc1 (stereo not drawn) [Example 12.27] |
| 200 | CCCOc1ccc(C#Cc2ccc(C(C)CNC(=O)C3CC3)cc2)cc1 (stereo not drawn) [Example 32.2] |
| 1100 | C[C@H](NC(=O)C1CC1)c1ccc(C#Cc2cnc(OCCC(F)(F)F)nc2)cc1 [Example 12.63] |
| 350 | CC(=O)NC(C)Cc1ccc(C#Cc2cnc(OC(C)CC(F)(F)F)nc2)cc1 (stereo not drawn) [Example 12.42] |
| 1600 | CC(=O)NC(C)Cc1ccc(C#Cc2ccc(-c3cnco3)cc2)cc1 (stereo not drawn) [Example 23.7] |
| 230 | CC(=O)NC(C)Cc1ccc(C#Cc2cnc(N3CCC(C)(C)C3)nc2)cc1 (stereo not drawn) [Example 13.68] |
| 660 | CC(=O)NC(C)Cc1ccc(C#Cc2cnc(NCC3CC3(C)C)nc2)cc1 (stereo not drawn) [Example 13.67] |
| 590 | CC(Cc1ccc(C#Cc2cnc(Oc3ccccc3)nc2)cc1)NC(=O)C1CC1 (stereo not drawn) [Example 12.24] |
| 26900 | CCOc1ccc(C#Cc2ccc(CCNC(C)=O)cn2)cc1 [Example 35.3] |
| 180 | CC(=O)NC(C)CCc1ccc(C#Cc2ccc(OC(C)C)cc2)cc1 (stereo not drawn) [Example 14.9] |
| 2300 | CCNC(=O)NCC(C)c1ccc(C#Cc2cnc(OC3CCC3)nc2)cc1 (stereo not drawn) [Example 33.3] |
| 630 | COc1ccc(Oc2ncc(C#Cc3ccc(CC(C)NC(C)=O)cc3)cn2)cn1 (stereo not drawn) [Example 12.40] |
| 1200 | CC(=O)NC(C)Cc1ccc(C#Cc2cnc(N(C)C)nc2)cc1 (stereo not drawn) [Example 13.58] |
| 13100 | CCOc1ccc(C#Cc2ccc(C(C)NC(=O)OC)cc2)cc1 (stereo not drawn) [Example 29.1, {1-[4-(4-Ethoxy-phenylethynyl)-phenyl]ethyl}-carbamic acid methyl ester] |
| 230 | CC(=O)NC(C)Cc1ccc(C#Cc2cnc(Oc3ccc(F)cc3)nc2)cc1 (stereo not drawn) [Example 12.49] |
